From US4557930A, “Anticholesteremic anion exchange resins” (Mitsubishi Petrochemical Co., Ltd., priority 1983, dated 1985)

System: descending aorta; plasma lipids
Assay: In vivo test by rabbit (arteriosclerosis inhibition test): plasma lipids and aorta
Parameters: species or system rabbit (New Zealand)
Source text: Eight to fourteen male New Zealand species rabbits, weighing about 2.2 Kg, were used per each group. To the first group of rabbits was given 40 g/Kg-body weight/day of a mixture of a feed produced by Oriental Yeast Co. mixed with 0.67% of cholesterol for 12 weeks, and to the rabbits of the second and third groups were further given CR - 1 and Clofibrate, respectively.
CR - 1 and Clofibrate employed was mixed in the feed at levels of 1.25% and 0.25%, respectively.
During the tests, the plasma lipid concentrations were measured, and after 12 weeks, all the rabbits were sacrificed by bleeding. Descending aorta were subjected to incision and the conditions of arteriosclerosis were observed.

[1] = 0.67% cholesterol intake, 6 weeks, CR - 1 1.25%, Clofibrate 0.25% in feed
[2] = 0.67% cholesterol intake, 12 weeks, CR - 1 1.25%, Clofibrate 0.25% in feed

With `CCOC(=O)C(C)(C)Oc1ccc(Cl)cc1` [Clofibrate] as the molecule, how does the “Total plasma: Cholesterol” value [1] read?
The value was 1810 ± 124 mg/dL.

What about the “Total plasma: Triglyceride” value [1] of the same molecule?
Its value is 337.1 ± 66.1 mg/dL.

And the “Total plasma: β-Lipoprotein” value [1]?
The value was 5038 ± 450 mg/dL.

And the “Aorta: Area of blood vessel at arteriosclerosis” value [2]?
The value was 8.0 ± 1.4 cm^2.

What about the “Aorta: Inhibition of arteriosclerosis” value [2] of the same molecule?
Its value is 18.0%.

What about the “Aorta: Total area” value [2] of the same molecule?
Its value is 17.7 ± 0.5 cm^2.

And the “Total plasma: Cholesterol” value [2]?
Its value is 1895 ± 117 mg/dL.

And the “Total plasma: Triglyceride” value [2]?
The value was 336.8 ± 39.7 mg/dL.

What about the “Total plasma: β-Lipoprotein” value [2] of the same molecule?
The value was 4385 ± 574 mg/dL.

And the “Aorta: Percentage of arteriosclerosis” value ((Area at arteriosclerosis)/(Total blood vessel area) × 100, 0.67% cholesterol intake, 12 weeks)?
Its value is 44.2 ± 7.0%.
